Assay results as given in patent publication US8685981B2, “Cyclic compound having hetero atom” (Daiichi Sankyo Company, Limited, priority 2009, dated 2014).

Each compound was assayed on ST2 cells, murine bone marrow-derived stromal cells (assay: Osteoblast differentiation test (alkaline phosphatase activity)). Settings: Mus musculus, ST-2, 96 h, at 0.03 μg/mL, four days of culturing, control group (0.1% DMSO) set at 100%, read-out: increase (%) in alkaline phosphatase activity.
Type: cell-based
Method: ST2 cells, murine bone marrow-derived stromal cells, (obtained from RIKEN) were used.
In this test, α-MEM media (obtained from GIBCO BRL Cat. No. 10370-021) containing 10% (v/v) of inactivated calf serum (obtained from Hyclone Laboratories, Inc.) and 1% (v/v) of Penicillin-Streptomycin Liquid (obtained from GIBCO BRL Cat. No. 15140-122) (hereinbelow, abbreviated as 10%-FBS-αMEM) were used. In this test, all culturing was performed in a CO2 incubator (37° C., 95% humidity, 5% CO2).
The aforementioned cells were detached with 2 mL of a 0.25% trypsin solution (obtained from GIBCO BRL Cat. No. 15050-065) and dispersed in 10 mL of 10%-FBS-αMEM. Subsequently, the cells were collected by centrifugation (25° C., 800 rpm, five minutes). Then, a cell suspension containing 40000 of the cells/mL of 10%-FBS-αMEM was prepared. The cell suspension was then dispensed into 96-well plates (the product of Falcon), 100 μL per well, at a density of 4000 cells/well, followed by culturing for 24 hours. To the wells except for the below-described well containing a control group, the compound was dispensed at final concentrations of 0.01, 0.03, 0.1, and 0.3 μg/ml. To the well of a control group, DMSO was dispensed at a final concentration of 0.1% (v/v). After four days of culturing, the activity of alkaline phosphatase (ALP) was measured in each group.
The measurement of ALP activity was performed as follows. That is, the medium in each well of the culture plates was completely removed. Each well was then washed by dispensing 100 μL of Dulbecco's phosphate buffer (obtained from GIBCO BRL Cat. No. 14190-144) and then removing it. A cell lysate solution containing 10 mM MgCl2 and 2% (v/v) TritonX-100 (Sigma) was prepared and dispensed at 50 μL/well, followed by stirring at room temperature for five minutes. An ALP substrate solution containing 50 mM diethanolamine (Wako pure chemical industries, Ltd., Cat. No. 099-03112) and 20 mM p-nitrophenyl phosphate (Wako pure chemical industries, Ltd., Cat. No. 147-02343) was prepared and dispensed at 50 μL/well, and the plates were left to stand at room temperature for 10 minutes. Subsequently, absorbance was measured by a microplate reader (Bio-Rad Laboratories, Inc.). Setting the measurement value of the control group of each plate at 100%, the increase (%) in alkaline phosphatase activity in the test compound-addition group was calculated, which was assessed as the degree of osteoblast differentiation.

Compound | activity at 0.03 µg/mL [%]
CN(C)C(=O)C1CCN(c2cncc3ccc(C(N)=O)cc23)CC1 [Example 74] | ≥ 200
NC(=O)c1ccc2cncc(N3CCN(c4nccs4)CC3)c2c1 [Example 18, 4-[4-(1,3-Thiazol-2-yl)piperazin-1-yl]isoquinoline-6-carboxamide] | ≥ 200
NC(=O)c1ccc2cncc(N3CCC(c4ccccc4)CC3)c2c1 [Example 42] | ≥ 200
NC(=O)c1ccc2cncc(N3CCC(OCCOCC4CCOC4)CC3)c2n1 (stereo not drawn) [Example 5, 8-{4-[2-(Tetrahydrofuran-3-ylmethoxy)ethoxy]piperidin-1-yl}-1,6-naphthyridine-2-carboxamide] | ≥ 200
COCC1CN(c2cncc3ccc(C(N)=O)cc23)CCN1c1ccccc1 (stereo not drawn) [Example 84] | ≥ 200
CN(C)C(=O)COC1CCN(c2cncc3ccc(C(N)=O)cc23)CC1 [Example 94] | ≥ 200
NC(=O)c1ccc2cncc(N3CCC(OCCOC4CCOCC4)CC3)c2c1 [Example 81] | ≥ 200
CC(C)(C)OC(=O)NCCOCC1CCCN(c2cncc3ccc(C(N)=O)cc23)C1 (stereo not drawn) [Example 21, Tert-butyl (2-{[1-(6-carbamoylisoquinolin-4-yl)piperidin-3-yl]methoxy}ethyl)carbamate] | ≥ 200
NC(=O)c1ccc2cncc(N3CCCC(COC(F)F)C3)c2n1 (stereo not drawn) [Example 104] | ≥ 200
COCC1CCN(c2cncc3ccc(C(N)=O)nc23)CC1 [Example 112] | ≥ 200
NC(=O)c1ccc2cncc(N3CCCC(COC(F)F)C3)c2c1 (stereo not drawn) [Example 103] | ≥ 200
CCOCCOC1CCN(c2cncc3ccc(C(N)=O)nc23)CC1 [Example 2, 8-[4-(2-Ethoxyethoxy)piperidin-1-yl]-1,6-naphthyridine-2-carboxamide] | ≥ 200
COC[C@@H]1CCCN(c2cncc3ccc(C(N)=O)cc23)C1 [Example 40] | ≥ 200
NC(=O)c1ccc2cncc(N3CCC(Oc4ccccc4)CC3)c2c1 [Example 64] | ≥ 200
N#Cc1ccc(N2CCN(c3cncc4ccc(C(N)=O)cc34)CC2)cc1 [Example 62] | ≥ 200
NC(=O)c1ccc2cncc(N3CCC(COC(F)F)CC3)c2c1 [Example 95] | ≥ 200
NC(=O)c1ccc2cncc(N3CCC(C4CCCCC4)CC3)c2c1 [Example 53] | ≥ 200
CN(C)C(=O)N1CCN(c2cncc3ccc(C(N)=O)cc23)CC1 [Example 99] | ≥ 200
NC(=O)c1ccc2cncc(N3CCC(OCCOC4CC4)CC3)c2c1 [Example 87] | ≥ 200
NC(=O)c1ccc2cncc(N3CCC(O)(c4ccc(Cl)cc4)CC3)c2c1 [Example 54] | ≥ 200

Compound | activity at 0.03 µg/mL [%]
NC(=O)c1ccc2cncc(N3CCCC3)c2c1 [Example 36] | ≥ 200
CC(=O)C1(c2ccccc2)CCN(c2cncc3ccc(C(N)=O)cc23)CC1 [Example 46] | ≥ 200
NC(=O)c1ccc2cncc(N3CCC(CCOC4CCOCC4)CC3)c2c1 [Example 71] | ≥ 200
CN(CCOC1CCN(c2cncc3ccc(C(N)=O)cc23)CC1)S(C)(=O)=O [Example 102] | ≥ 200
NC(=O)c1ccc2cncc(N3CCCN(c4ccccc4)CC3)c2c1 [Example 63] | ≥ 200
NC(=O)c1ccc2cncc(N3CCC(F)(F)CC3)c2c1 [Example 43] | ≥ 200
CC(C)OCCOC1CCN(c2cncc3ccc(C(N)=O)nc23)CC1 [Example 111] | ≥ 200
CN(C)C(=O)COC1CCN(c2cncc3ccc(C(N)=O)nc23)CC1 [Example 8, 8-{4-[2-(Dimethylamino)-2-oxoethoxy]piperidin-1-yl}-1,6-naphthyridine-2-carboxamide] | ≥ 200
NC(=O)c1ccc2cncc(N3CCC(COC4CCOCC4)CC3)c2c1 [Example 77] | ≥ 200
CN(C)C(=O)N1CCN(c2cncc3ccc(C(N)=O)nc23)CC1 [Example 10, 8-[4-(Dimethylcarbamoyl)piperazin-1-yl]-1,6-naphthyridine-2-carboxamide] | ≥ 200
NC(=O)c1ccc2cncc(N3CCN(c4ccc([N+](=O)[O-])cc4)CC3)c2c1 [Example 57] | ≥ 200
NC(=O)c1ccc2cncc(N3CCC(OCC4CCCO4)CC3)c2c1 (stereo not drawn) [Example 68] | ≥ 200
NC(=O)c1ccc2cncc(N3CCOCC3)c2c1 [Example 35] | ≥ 200
CN(C)C(=O)CCC1CCN(c2cncc3ccc(C(N)=O)cc23)CC1 [Example 82] | ≥ 200
CC(C)(O)C1CCN(c2cncc3ccc(C(N)=O)cc23)CC1 [Example 69] | ≥ 200
NC(=O)c1ccc2cncc(N3CCC(F)CC3)c2c1 [Example 45] | ≥ 200
CCN(C)C(=O)COC1CCN(c2cncc3ccc(C(N)=O)nc23)CC1 [Example 116] | ≥ 200
Cc1ccc(N2CCN(c3cncc4ccc(C(N)=O)cc34)CC2)cc1 [Example 61] | ≥ 200
NC(=O)c1ccc2cncc(N3CCN(C(=O)c4ccccc4)CC3)c2c1 [Example 78] | ≥ 200
NC(=O)c1ccc2cncc(N3CCC(OCC(=O)N4CCCC4)CC3)c2n1 [Example 113] | ≥ 200

Compound | activity at 0.03 µg/mL [%]
COCC1CCN(c2cncc3ccc(C(N)=O)cc23)CC1 [Example 37] | ≥ 200
NC(=O)c1ccc2cncc(N3CCC(COC4CCCCO4)CC3)c2c1 (stereo not drawn) [Example 52] | ≥ 200
NC(=O)c1ccc2cncc(N3CCC(OCCOC4CCOCC4)CC3)c2n1 [Example 6, 8-{4-[2-(Tetrahydro-2H-pyran-4-yloxy)ethoxy]piperidin-1-yl}-1,6-naphthyridine-2-carboxamide] | ≥ 200
NC(=O)c1ccc2cncc(N3CCC(C(=O)c4ccc(F)cc4)CC3)c2c1 [Example 70] | ≥ 200
NC(=O)c1ccc2cncc(N3CCN(c4cccc(F)c4)CC3)c2c1 [Example 60] | ≥ 200
COCC1CN(c2cncc3ccc(C(N)=O)cc23)CCO1 (stereo not drawn) [Example 105] | ≥ 200
NC(=O)c1ccc2cncc(N3CCN(c4ccc(Cl)cc4)CC3)c2c1 [Example 49] | ≥ 200
CC(=O)c1ccn(-c2cncc3ccc(C(N)=O)cc23)c1 [Example 48] | ≥ 200
CN(CCOC1CCN(c2cncc3ccc(C(N)=O)nc23)CC1)S(C)(=O)=O [Example 9, 8-(4-{2-[Methyl(methylsulfonyl)amino]ethoxy}piperidin-1-yl)-1,6-naphthyridine-2-carboxamide] | ≥ 200
CCN(C)C(=O)N1CCN(c2cncc3ccc(C(N)=O)nc23)CC1 [Example 115] | ≥ 200
NC(=O)c1ccc2cncc(N3CC=C(c4ccccc4)CC3)c2c1 [Example 24, 4-(4-Phenyl-3,6-dihydropyridine-1(2H)-yl)isoquinoline-6-carboxamide] | ≥ 200
NC(=O)c1ccc2cncc(N3CCC(C(F)(F)F)CC3)c2c1 [Example 44] | ≥ 200
NC(=O)c1ccc2cncc(N3CCC(CO)CC3)c2c1 [Example 55] | ≥ 200
COC1CCN(c2cncc3ccc(C(N)=O)cc23)CC1 [Example 76] | ≥ 200
NC(=O)c1ccc2cncc(N3CCC(O)CC3)c2c1 [Example 89] | ≥ 200
NC(=O)c1ccc2cncc(N3CCC(c4ccccc4)CC3)c2n1 [Example 83] | ≥ 200
NC(=O)c1ccc2cncc(N3CCc4ccccc4C3)c2c1 [Example 59] | ≥ 200
NC(=O)c1ccc2cncc(N3CCC(OCCO)CC3)c2c1 [Example 20, 4-[4-(2-Hydroxyethoxy)piperidin-1-yl]isoquinoline-6-carboxamide] | ≥ 200
COCC1CN(c2cncc3ccc(C(N)=O)nc23)CCC1OC (stereo not drawn) [Example 108] | ≥ 200
NC(=O)c1ccc2cncc(N3CCC(C4CCOCC4)CC3)c2c1 [Example 65] | ≥ 200
